Read-outs that look alike come from different tables or passages of the source.
Assays:
[1] = tested on: total β-catenin in SW480 colorectal cells; assay: cells; assay type: cell-based
Description: Total β-Catenin MSD 96-Well Plate Assay for SW480 Cells
SW480 colorectal cells were seeded at a density of 10,000/well in CellBIND 96-well plates (Corning catalog no. 3300) in 60 μL of normal growth medium (MEM alpha supplemented with 10% heat inactivated FBS, GlutaMAX, pyruvate, and 10 mM HEPES).
A 10-point, 3-fold dilution series for each TNKS inhibitor was constructed in a 96-well “stock” plate. […] The plates were incubated at 37° C. for 40 to 48 hours. The media was removed from the CellBIND plate via plate inversion and gentle shaking and the inverted plate was touched to a paper towel and immediately placed on ice. […] Plates containing cell lysates were sealed and shaken for one hour at 4° C. and then quickly frozen in a −80° C. for approximately 15 to 30 minutes followed by gradually thawing at 4° C. Finally, lysate containing plates were centrifuged @1000×g (2073 rpm) for 10 minutes at 4° C.
The sealed MSD plate was incubated overnight in a cold room with gentle shaking. The MSD plate was then blocked with 150 μL of Blocker “A” per well and incubated overnight at 4° C. with vigorous shaking. The blocked MSD plate was washed 4 times with 150 μL/well TBS-T wash buffer (150 mM NaCl, 50 mM Tris, pH 7.5, 0.02% Tween-20). Cell lysates (75 μL) were transferred to prepared MSD plates and incubated at 4° C. ON with gentle shaking. […] The detection antibody was incubated for 1 hour at room temperature with vigorous shaking after which plates were washed 3 times with 150 μL/well TBS-T wash buffer. Plates were processed for analysis by the addition of 150 μL/well MSD Read 4× Buffer T with surfactant (catalog no. R92TC-2; diluted 1:3 in deionized water) and were read on the SECTOR Imager 6000.

[2] = target: 6×HIS-tankyrase 1 (1091-1325) (Homo sapiens (Human), UniProt O95271); assay: biochemical; assay type: biochemical; details: 400 nM NAD, 60 minutes at room temperature, read-out: TNKS1 IP IC50
[3] = tested on: Axin2 in SW480 cells; assay: cells; assay type: cell-based; details: Homo sapiens, SW480, 24 h, read-out: Axin2 384 IF EC50 IP
Description: Using a VPrep, 10 μL of compound/controls was transferred from the compound plate to 60 μL in the cell plate (final 0.5% DMSO, 70 μL). The mixture was incubated for 24 hours at 37° C. at 5% CO2.
The extra media was tapped out. 50 μL of 4% paraformaldehyde (Fisher, AA433689M), 0.1% Triton (Sigma, X100-100 ML) in PBS were added, and the mixture was incubated for 15 minutes at room temperature. […] The extra media was tapped out and to this was added 50 μL of buffer containing Axin2 Antibody (Sigma, SAB1100677-200 µL) at 1:10000 in PBS, 0.1% Tween-20, 1% Normal Goat Serum. The mixture was incubated for 2 hours at room temperature or overnight at 4° C. The cells were then washed twice with PBS, 0.1% Tween-20, and 1% Normal Goat Serum. […] The mixture was then incubated for 30 minutes at room temperature. The cells were then washed twice with PBS, 0.1% Tween-20, and 1% Normal Goat Serum. 50-100 μL PBS was added, and the mixture was covered with a plate seal (Fisher, NC9425162). An ArrayScan (a variation of the compartmental analysis protocol was optimized) was used to scan the plates, and data was analyzed using MEAN_RingSpotAvgIntenCh2). The Axin2 accumulation POC was calculated, and the EC50 was determined using Genedata Screener software to report Axin2 activity.

[4] = Homo sapiens, SW480 cells, 40 to 48 hours, top concentration 10 μM, read-out: SW480-Total β-Catenin IC50 IP

Sequence of 6×HIS-tankyrase 1 (1091-1325) (O95271 1091-1325): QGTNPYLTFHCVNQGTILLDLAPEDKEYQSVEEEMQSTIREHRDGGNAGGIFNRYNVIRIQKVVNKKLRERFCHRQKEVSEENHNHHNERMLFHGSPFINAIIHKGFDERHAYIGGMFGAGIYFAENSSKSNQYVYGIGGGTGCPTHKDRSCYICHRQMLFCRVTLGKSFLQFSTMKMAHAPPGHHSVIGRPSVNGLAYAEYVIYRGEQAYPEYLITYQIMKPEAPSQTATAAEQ

| Compound | IC50 [1, 4] [µM] | IC50 ([2]; […] enzyme) [nM] | further results |
| --- | --- | --- | --- |
| COc1cccc([C@@H]2N(c3ccc(C(=O)Nc4cccc5cccnc45)cc3)C(=O)OC2(C)C)c1 [Example 107, (S)-4-(4-(3-Methoxyphenyl)-5,5-dimethyl-2-oxooxazolidin-3-yl)-N-(quinolin-8-yl)benzamide] | 2.36 | 89.9 | – |
| CC1(C)OC(=O)N(c2ccc(C(=O)Nc3cccc4cccnc34)cc2)C1c1ccccn1 (racemic) [Example 121, (+/−)-(R/S)-4-(5,5-dimethyl-2-oxo-4-(pyridin-2-yl)oxazolidin-3-yl)-N-(quinolin-8-yl)benzamide] | 5.64 | – | IC50 ([2]; 0.25 nM enzyme): 310 nM |
| Cc1cc(N2C(=O)OC(C)(C)[C@@H]2c2ccccc2)ccc1C(=O)Nc1ccnc2cccnc12 [Example 128, (S)-4-(5,5-dimethyl-2-oxo-4-phenyloxazolidin-3-yl)-2-methyl-N-(1,5-naphthyridin-4-yl)benzamide] | 4.35 | 693 | – |
| CC1(C)OC(=O)N([C@@H]2CC=C(c3cnc4ccn(-c5ncccn5)c4c3)CC2)[C@H]1c1ccccc1 (mixture of isomers) [Example 173, Mixture of (S)-5,5-dimethyl-4-phenyl-3-((S)-4-(1-(pyrimidin-2-yl)-1H-pyrrolo[3,2-b]pyridin-6-yl)cyclohex-3-en-1-yl)oxazolidin-2-one and (S)-5,5-dimethyl-4-phenyl-3-((R)-4-(1-(pyrimidin-2-yl)-1H-pyrrolo[3,2-b]pyridin-6-yl)cyclohex-3-en-1-yl)oxazolidin-2-one] | 1.12 | 9.26 | – |
| CC1(C)OC(=O)N([C@@H]2CC=C(c3cnc4cc[nH]c4c3)CC2)[C@H]1c1ccccc1 (mixture of isomers) [Example 169, mixture of (S)-3-((S)-4-(1H-pyrrolo[3,2-b]pyridin-6-yl)cyclohex-3-en-1-yl)-5,5-dimethyl-4-phenyloxazolidin-2-one and (S)-3-((R)-4-(1H-pyrrolo[3,2-b]pyridin-6-yl)cyclohex-3-en-1-yl)-5,5-dimethyl-4-phenyloxazolidin-2-one] | 3.18 | 88.6 | – |
| CC1(C)OC(=O)N(c2ccc(C(=O)Nc3cccc4cccnc34)cc2)C1c1ccncc1 (racemic) [Example 124, (+/−)-(R/S)-4-(5,5-dimethyl-2-oxo-4-(pyridin-4-yl)oxazolidin-3-yl)-N-(quinolin-8-yl)benzamide] | 1.5 | – | IC50 ([2]; 0.25 nM enzyme): 767 nM |
| (S)-3-(4-(6-amino-5-(5-chloropyridazin-3-yl)pyridin-3-yl)phenyl)-5,5-dimethyl-4-phenyloxazolidin-2-one [Example 100] | – | 220 | IC50 ([1]; SW480 cells, 40 to 48 hours, top concentration 10 μM, read-out: SW480-Total β-Catenin IC50 IP): 3.38 µM |
| C[C@@]1(c2ccccc2)CN([C@H]2CC[C@@H](n3c(=O)[nH]c4cc(C#N)ccc43)CC2)C(=O)O1 (stereo in doubt) [Example 93, 1-((1R,4r)-4-((R)-5-methyl-2-oxo-5-phenyloxazolidin-3-yl)cyclohexyl)-2-oxo-2,3-dihydro-1H-benzo[d]imidazole-5-carbonitrile] | 0.125 | 3 | – |
| O=C(Nc1cccc2cccnc12)c1ccc(N2C(=O)OC3(CCCCC3)C2c2ccccc2)cc1 (centres unmarked) [Example 46, (R+S) 4-(2-oxo-4-phenyl-1-oxa-3-azaspiro[4.5]decan-3-yl)-N-(quinolin-8-yl)benzamide] | – | 5170 | EC50 [3]: > 25 µM |
| CC1(C)OC(=O)N(c2ccn3c(Nc4ccnc5cccnc45)nnc3c2)[C@H]1c1ccccc1 [Example 71, (S)-3-(3-((1,5-naphthyridin-4-yl)amino)-[1,2,4]triazolo[4,3-a]pyridin-7-yl)-5,5-dimethyl-4-phenyloxazolidin-2-one] | – | 503 | EC50 ([3]; SW480 cells, 24 hours): > 25 µM |
| CC1(C)OC(=O)N([C@H]2CC[C@H](n3c(=O)[nH]c4c(F)cc(F)cc43)CC2)[C@H]1c1ccccc1 [Example 104, (S)-3-((1r,4S)-4-(4,6-difluoro-2-oxo-2,3-dihydro-1H-benzo[d]imidazol-1-yl)cyclohexyl)-5,5-dimethyl-4-phenyloxazolidin-2-one] | > 10 | 93 | – |
| CC1(C)OC(=O)N(c2ccc(-n3c(=O)[nH]c4ccccc43)cc2)[C@H]1c1ccccc1 [Example 19, (S)-5,5-dimethyl-3-(4-(2-oxo-2,3-dihydro-1H-benzo[d]imidazol-1-yl)phenyl)-4-phenyloxazolidin-2-one] | 8.63 | 863 | – |
| COc1ccc([C@H]2N(c3ccc(C(=O)Nc4cccc5cccnc45)cc3)C(=O)OC2(C)C)cc1 [Example 112, (R)-4-(4-(4-methoxyphenyl)-5,5-dimethyl-2-oxooxazolidin-3-yl)-N-(quinolin-8-yl)benzamide] | – | 2750 | EC50 ([3]; SW480 cells, 24 hours): > 25 µM |
| CC1(C)OC(=O)N(c2ccc(C(=O)Nc3cccc4cccnc34)cc2)[C@@H]1c1cccnc1 [Example 10, (R)-4-(5,5-dimethyl-2-oxo-4-(pyridin-3-yl)oxazolidin-3-yl)-N-(quinolin-8-yl)benzamide] | – | 4450 | EC50 ([3]; SW480 cells, 24 hours): > 25 µM |
| CC1(C)OC(=O)N(c2ccc(-c3cnc(N)c(-c4nccc(C#N)n4)c3)cc2)[C@H]1c1ccccc1 [Example 102, (S)-2-(2-amino-5-(4-(5,5-dimethyl-2-oxo-4-phenyloxazolidin-3-yl)phenyl)pyridin-3-yl)pyrimidine-4-carbonitrile] | > 10 | 920 | – |
| CC1(C)OC(=O)N(c2ccc(C(=O)Nc3cccc4cccnc34)cc2)[C@H]1c1ccccn1 [Example 123, (S)-4-(5,5-dimethyl-2-oxo-4-(pyridin-2-yl)oxazolidin-3-yl)-N-(quinolin-8-yl)benzamide] | 3.44 | 228 | – |
| CC1(C)OC(=O)N(c2ccc(-c3cnc(N)c(-c4nccc(C(=N)N)n4)c3)cc2)[C@H]1c1ccccc1 [Example 99, (S)-2-(2-amino-5-(4-(5,5-dimethyl-2-oxo-4-phenyloxazolidin-3-yl)phenyl)pyridin-3-yl)pyrimidine-4-carboximidamide] | – | – | IC50 ([1]; Homo sapiens, SW480, read-out: SW480-Total β-Catenin IC50 IP): 0.62 µM; IC50 ([2]; 0.25 nM enzyme): 14.3 nM |
| C[C@]1(c2ccccc2)CN([C@H]2CC[C@H](n3c(=O)[nH]c4cc(C#N)ccc43)CC2)C(=O)O1 (single isomer, unassigned) [Example 94] | 3.01 | 270 | – |
| CC1(C)OC(=O)N(c2ccc(C(=O)Nc3cccc4cccnc34)cc2)C1c1cccnc1 (racemic) [Example 9, (+/−)-(R/S)-4-(5,5-dimethyl-2-oxo-4-(pyridin-3-yl)oxazolidin-3-yl)-N-(quinolin-8-yl)benzamide] | 2.48 | – | IC50 ([2]; 0.25 nM enzyme): 1160 nM |
| CC1(C)OC(=O)N(c2ccc(C(=O)Nc3cccc4cccnc34)cc2)C1c1cccc(F)c1 (racemic) [Example 108, (+/−)-(R/S)-4-(4-(3-fluorophenyl)-5,5-dimethyl-2-oxooxazolidin-3-yl)-N-(quinolin-8-yl)benzamide] | > 10 | – | IC50 ([2]; 0.25 nM enzyme): 551 nM |
| CC1(C)OC(=O)N(c2ccc(C(=O)Nc3nccc4cccnc34)cc2)[C@H]1c1ccccc1 [Example 20, (S)-4-(5,5-dimethyl-2-oxo-4-phenyloxazolidin-3-yl)-N-(1,7-naphthyridin-8-yl)benzamide] | 5.33 | 1480 | – |
| CC1(C)OC(=O)N(c2ccc(-c3cc(-c4ccccn4)cnc3F)cc2)[C@H]1c1ccccc1 [Example 114, (S)-3-(4-(6′-fluoro-[2,3′-bipyridin]-5′-yl)phenyl)-5,5-dimethyl-4-phenyloxazolidin-2-one] | 1.78 | 447 | – |

— patent US9340549B2, “Oxazolidinone compounds and derivatives thereof” (priority 2012, dated 2016)
